{
  "source": "patent US7294643B2",
  "about": "“UK-1 analogues: methods of preparation and use” (Board of Regents, The University of Texas System, priority 2002, dated 2007)",
  "key": {"[1]": {"system": "methicillin-resistant S. aureus ATCC 43300", "test": "Antimicrobial bioassay, methicillin-resistant S. aureus", "type": "cell-based, Staphylococcus aureus", "description": "Antimicrobial Bioassay: Staphylococcus aureus ATCC 29213 and methicillin-resistant S. aureus ATCC 43300 (MRS) were obtained from the American Type Culture Collection (Rockville, Md.) and stored on agar slants at 4° C. until needed. Susceptibility testing was performed using a modified version of the NCCLS methods: “Methods for Dilution Antimicrobial Susceptibility Tests for Bacteria that Grow Aerobically,” M7-A4, Vol. 17, No. 2, NCCLS, (1997) and “Reference Method for Broth Dilution Antifungal Susceptibility Testing of Yeasts; Approved Standard,” M27-A, Vol. 17, No. 9, NCCLS, (1997), both of which are incorporated herein by reference. Microorganisms were subcultured prior to the assay by suspending cells from the slant in Eugon broth (BBL, Maryland) and incubating for 24 hours at 37° C. Inocula were prepared by diluting the subcultured organism in its incubation broth after comparison to the 0.5 McFarland Standard (a BaSO4 suspension) to afford final inocula ranges of S. aureus: 1.0-5.0×10^5 and MRS: 0.2-6.0×10^5 CFU/ml. Test compounds were dissolved in DMSO, serially-diluted using normal saline, and transferred in duplicate to 96 well flat-bottomed microtiter plates. The microbial inocula were added to the samples to achieve a final volume of 200 μl and final compound concentrations starting with 50 μg/ml. Drug [Ciprofloxacin (ICN Biomedicals, Ohio)] as well as growth and blank (media only) controls were added to each test plate. Plates were read at 630 nm using the EL-340 Biokinetics Reader (Bio-Tek Instruments, Vermont) prior to and after incubation at 37° C. for 24 hours. Percent growth was calculated and plotted versus concentration to afford the IC50, or sample concentration that affords 50% growth of the organism relative to controls."}, "Supercoiled ΦX174 DNA": {"system": "Supercoiled ΦX174 DNA", "test": "Cleavage of supercoiled DNA, agarose gel electrophoresis", "type": "biochemical", "settings": "37° C.", "description": "Supercoiled Φ[…] DNA (50 μM) was incubated for 24 hrs in pH 8 Tris buffer (10 mM) at 37° C. with UK-1 (15-25 μM), H2O2 (5 μM-5 mM), or NiCl2 (15-25 μM), or a combination of these agents. Agarose gel electrophoresis was carried out to resolve the DNA products. […] There was an increase in the proportion of nicked, relaxed DNA product in the presence of an oxidant (e.g., H2O2), but no linear DNA that would indicate double-stranded DNA cleavage. […] FIG. 5 depicts cleavage of supercoiled DNA by UK-1 in the presence of oxidizing agents and metal ions. Supercoiled Φ[…] DNA (50 μM bp) was incubated with UK-1 (23 μM), NiCl2 (23 μM), H2O2 (5 mM), or combinations of these agents at 37° C. for 24 h and the DNA products subjected to agarose gel electrophoresis with ethidium bromide staining. Lanes: C, untreated supercoiled DNA; 1, DNA+UK-1; 2, DNA+NiCl2; 3, DNA+H2O2; 4, DNA+UK-1+NiCl2; 5, DNA+UK-1+H2O2; 6, DNA+UK-1+NiCl2+H2O2; 7, DNA+NiCl2+H2O2."}, "[2]": {"test": "Metal ion binding by continuous variation, Zn2+", "settings": "Zn^2+, methanol, 1:1 complex", "description": "(§1) Previous work indicated the metal ion binding mechanism of UK-1, so the method of continuous variation was used to determine the ability of selected UK-1analogues to bind a variety of metal ions. Methanolic solutions of UK-1 or UK-1 analogues and metal ion salts [Ca(NO3)2, Mg(NO3)2, Zn(NO3)2, or Fe(NO3)3] at various molar ratios, and 20 μM combined total concentration, were prepared and the absorbance at 418 nm was determined. […] Compound 2.1 does bind with Ca^2+ and Zn^2+ better than UK-1.\n(§2) Continuous variation plots. A 100 μM solution of UK-1 or analogue and 100 AM solutions of Ca(NO3)2, Mg(NO3)2, Zn(NO3)2, or Fe(NO3)3 were prepared in methanol. From these stock solutions, 15 samples (1 mL) of varying mole fraction of the metal ion were prepared at a constant, combined concentration of 20 μM for the ligand and the metal ion. The change in absorbance was monitored from 500 to 200 nm for each sample using as a reference a 1 mL solution containing the same concentration of ligand as the sample being measured but without the metal ion. The maximum absorbance change was typically around 418 nm but varied somewhat for each metal ion. The absorbance at 418 nm was plotted as a function of the mole fraction of the metal ion and the maximum absorbance change was determined. The absorbance of a sample containing the metal ion concentration corresponding to this maximum change and a 15 fold excess of metal ion at this ligand concentration, subtracted from a reference containing the same concentration of ligand but no metal ion was used to normalize the curve and obtain the conditional formation constant as described in the paper to Likussar, W.; Boltz, D. F. Anal. Chem. 1971, 43, 1265-1272, which is incorporated herein by reference."}, "[3]": {"test": "Metal ion binding by continuous variation, Fe3+", "settings": "Fe^3+, methanol, 1:1 complex", "description": "as §1, §2"}, "SK-N-AS": {"system": "SK-N-AS", "test": "alamarBlue cytotoxicity assay, SK-N-AS", "type": "cell-based", "settings": "Homo sapiens", "description": "(§3) Cytotoxicity Assays. Cell culture cytotoxicity assays were performed using the. alamarBlue method, as described by Ahmed et al., J. Immun. Methods 1994, 170, 211-224, which is incorporated herein by reference. Briefly, aliquots of 100 μL of cell suspension (1.0-2.5×10^3 cells) was placed in 96-well microtiter plates in an atmosphere of 5% CO2 at 37° C. After 24 hours, 100 μL of culture medium and 2 μL of compound in vehicle (culture media with 40% pyridine) or vehicle alone were added, and the plates incubated an additional 72 hours. The final pyridine concentration in all cases was 0.4%; at this pyridine concentration there was no affect on the growth of cells compared to cells in culture media without added pyridine. […] After the culture media had been removed from each well, 200 μL of fresh media and 20 μL of 90% alamarBlue reagent were added, followed by an additional 6 h incubation. The fluorescent intensity was measured using a Spectrafluor Plus plate reader with excitation at 530 nm and emission at 590 nm. Results are reported as IC50 values, the average concentration required to produce a decrease of fluorescent intensity of 50% relative to vehicle-treated controls in two separate determinations."}, "MCF-7 cells": {"system": "MCF-7 cells", "test": "alamarBlue cytotoxicity assay, MCF-7", "type": "cell-based", "settings": "Homo sapiens, MCF7; MCF-7, alamarBlue, 72 h", "description": "as §3"}, "[4]": {"system": "IMR-32 neuroblastoma cell line", "test": "alamarBlue cytotoxicity assay, IMR-32", "type": "cell-based", "settings": "Homo sapiens", "description": "as §3"}, "SK-N-SH": {"system": "SK-N-SH", "test": "alamarBlue cytotoxicity assay, SK-N-SH", "type": "cell-based", "settings": "Homo sapiens", "description": "as §3"}},
  "data": [
    {"smiles": "COC(=O)c1cccc2oc(-c3cccc4oc(-c5ccccc5O)nc34)nc12", "note": "[UK-1]", "values": [
      {"measurement": "IC50", "setting": "[1]; Staphylococcus aureus, ATCC43300, Methacilline-resistant Staph. Aureus, growth inhibited by 50%, read-out: Staph. aureus IC50", "value": "> 50", "unit": "µg/mL"},
      {"measurement": "antibacterial effect", "setting": "[1]; methicillin-resistant S. aureus, concentrations up to 50 μg/mL", "value": "no indication of any antibacterial effect"},
      {"measurement": "DNA cleavage", "setting": "Supercoiled ΦX174 DNA; UK-1 and an oxidant (H2O2), 24 hrs", "value": "significantly more DNA cleavage"},
      {"measurement": "DNA cleavage", "setting": "Supercoiled ΦX174 DNA; UK-1 only, 24 hrs, pH 8 Tris buffer", "value": "no evidence of DNA cleavage"},
      {"measurement": "DNA cleavage", "setting": "Supercoiled ΦX174 DNA; combination of UK-1, H2O2, and NiCl2, 24 hrs", "value": "particularly active in inducing DNA cleavage"},
      {"measurement": "Association constant for metal ion binding", "setting": "[2]", "value": "2e+06", "unit": "M⁻¹"},
      {"measurement": "Association constant for metal ion binding", "setting": "[3]", "value": 250000, "unit": "M⁻¹"},
      {"measurement": "IC50", "setting": "SK-N-AS", "value": 24000, "unit": "nM"},
      {"measurement": "IC50", "setting": "MCF-7 cells", "value": 1600, "unit": "nM"},
      {"measurement": "IC50", "setting": "[4]; IMR-32, IMR-32, alamarBlue", "value": 60, "unit": "nM"},
      {"measurement": "IC50", "setting": "[4]; IMR-32, IMR-32, bound stated in text", "value": "< 100", "unit": "nM"},
      {"measurement": "IC50", "setting": "SK-N-SH", "value": 7000, "unit": "nM"}
    ]}
  ]
}
